Like-named read-outs stand apart in the source and are kept apart here.

Usually IC20 stands for the concentration at which the effect reaches the 20% level. Usually IC50 stands for the concentration needed to halve the response being measured. Lower therefore signals greater potency in that assay. In general, Ki refers to the dissociation constant of the complex between target and ligand, obtained from inhibition or displacement. Low readings indicate tighter binding, high ones weaker binding. By EC50 is commonly meant the concentration at which the effect is half-maximal.

One series addresses human TAAR1 (Homo sapiens (Human), UniProt Q96RJ0). The series is described as follows: cAMP functional assay in HEK293 cells expressing human TAAR1. As to conditions: for hTAAR1 efficacy*: % agonist activity, β-phenylethylamine = 100% agonism; for EC50: cAMP, HEK293 cells expressing human TAAR1, read-out: hTAAR1 EC50. The class given is cell-based. As for the experimental part:
For the construction of expression plasmids the coding sequences of human TAAR 1 were amplified from genomic DNA essentially as described by Lindemann et al.[14]. The Expand High Fidelity PCR System (Roche Diagnostics) was used with 1.5 mM Mg^2+ and purified PCR products were cloned into pCR2.1-TOPO cloning vector (Invitrogen) following the instructions of the manufacturer. PCR products were subcloned into the pIRESneo2 vector (BD Clontech, Palo Alto, Calif.), and expression vectors were sequence verified before introduction in cell lines.
HEK293 cells (ATCC # CRL-1573) were cultured essentially as described by Lindemann et al. (2005). For the generation of stably transfected cell lines HEK293 cells were transfected with the pIRESneo2 expression plasmids containing the TAAR coding sequences (described above) with Lipofectamine 2000 (Invitrogen) according to the instructions of the manufacturer, and 24 hrs post transfection the culture medium was supplemented with 1 mg/ml G418 (Sigma, Buchs, Switzerland). After a culture period of about 10 d clones were isolated, expanded and tested for responsiveness to trace amines (all compounds purchased from Sigma) with the cAMP Biotrak Enzyme immunoassay (EIA) System (Amersham) following the non-acetylation EIA procedure provided by the manufacturer.
cAMP measurements were performed as described previously (Revel et al., Proc. Natl. Acad. Sci. USA 2011, 108, 8485-8490). In brief, cells that expressed human TAAR1 were plated on 96-well plates (BIOCOAT 6640; Becton Dickinson, Allschwil, Switzerland) and incubated for 20 h at 37° C. Prior to stimulation of the cells with a broad concentration range of agonists for 30 min at 37° C., the cells were washed with PBS and preincubated with PBS that contained 1 mM 3-isobutyl-1-methylxanthine for 10 min at 37° C. and 5% CO2. Stimulation with 0.2% DMSO was set as the basal level, and the effect of 30 μM β-PEA was set as the maximal response. Subsequently, the cells were lysed, and cAMP assays were performed according to the manufacturer's instructions (cAMP kit; Upstate/Millipore, Schaffhausen, Switzerland). Finally, the plates were read with a luminometer (1420 Multilabel counter; PerkinElmer, Schwerzenbach, Switzerland), and the amount of cAMP was calculated. The results were obtained from at least three independent experiments. Experiments were run in duplicate or triplicate. EC50 values are presented as mean ±standard deviation (in μM).

The target in another series is hERG potassium channel (Homo sapiens (Human), UniProt Q12809). The series is described as follows: hERG whole-cell patch-clamp in stably transfected CHO cells. The class given is cell-based. The conditions noted are these: for IC50: patch-clamp, CHO cells, 36±1° C.; for selectivity ratio: pH 7.4, hERG IC20 / hTAAR1 EC50, read-out: hERG selectivity ratio versus hTAAR1 EC50. As for the experimental part: The whole-cell patch-clamp technique was used to investigate the effects of the test items on hERG (human-ether-a-go-go related gene) potassium channels in stably transfected CHO cells near physiological temperature (36±1° C.). The effects of compounds on hERG K^+-current parameters were evaluated at 4 concentrations (0.3-3-30-300 μM) in at least 3 CHO cells stably expressing the hERG channel. For electrophysiological measurements cells were seeded onto 35 mm sterile culture dishes containing 2 ml culture medium without Hygromycin B. Cells were cultivated at a density that enabled single cells (without visible connections to neighbouring cells) to be measured. Cells were incubated at 37° C. in a humidified atmosphere with 5% CO2 (rel. humidity about 95%). The cells were continuously maintained in and passaged in sterile culture flasks containing nutrient mixture F-12 (DMEM/F-12 with L-Glutamine) supplemented with 10% foetal bovine serum and 10% penicillin/streptomycin solution. […] The 35 mm culture dishes upon which cells were seeded at a density allowing single cells to be recorded were placed on the dish holder of the microscope and continuously perfused (at approximately 1 ml/min) with the bath solution (sodium chloride 150 mM, potassium chloride 4 mM, calcium chloride 1.2 mM, magnesium chloride 1 mM, HEPES 10 mM, pH (NaOH) 7.4) at near physiological temperature (36±1° C.). After formation of a Gigaohm seal between the patch electrodes and individual hERG stably transfected CHO cells (pipette resistance range: 2.0 MΩ-7.0 Mω; seal resistance range: >1 Gω) the cell membrane across the pipette tip was ruptured to assure electrical access to the cell interior (whole-cell patch-configuration). In case the quality of the seal was poor, the process of seal formation was repeated with a different cell and a new pipette. […] This voltage protocol was run at least 10 times at intervals of 10 s. If current density was judged to be too low for measurement, another cell was recorded. […] During wash-in of the test item the voltage protocol indicated above was run continuously again at 10 s intervals until the steady-state level of block was reached. The four test item concentrations of the compound were applied sequentially to 3 cells in a cumulative manner. […] Based on the IC50 value the IC20 was estimated. Each concentration of the test item was analyzed in three experiments (n=3).
Chain of hERG potassium channel (Q12809 whole entry): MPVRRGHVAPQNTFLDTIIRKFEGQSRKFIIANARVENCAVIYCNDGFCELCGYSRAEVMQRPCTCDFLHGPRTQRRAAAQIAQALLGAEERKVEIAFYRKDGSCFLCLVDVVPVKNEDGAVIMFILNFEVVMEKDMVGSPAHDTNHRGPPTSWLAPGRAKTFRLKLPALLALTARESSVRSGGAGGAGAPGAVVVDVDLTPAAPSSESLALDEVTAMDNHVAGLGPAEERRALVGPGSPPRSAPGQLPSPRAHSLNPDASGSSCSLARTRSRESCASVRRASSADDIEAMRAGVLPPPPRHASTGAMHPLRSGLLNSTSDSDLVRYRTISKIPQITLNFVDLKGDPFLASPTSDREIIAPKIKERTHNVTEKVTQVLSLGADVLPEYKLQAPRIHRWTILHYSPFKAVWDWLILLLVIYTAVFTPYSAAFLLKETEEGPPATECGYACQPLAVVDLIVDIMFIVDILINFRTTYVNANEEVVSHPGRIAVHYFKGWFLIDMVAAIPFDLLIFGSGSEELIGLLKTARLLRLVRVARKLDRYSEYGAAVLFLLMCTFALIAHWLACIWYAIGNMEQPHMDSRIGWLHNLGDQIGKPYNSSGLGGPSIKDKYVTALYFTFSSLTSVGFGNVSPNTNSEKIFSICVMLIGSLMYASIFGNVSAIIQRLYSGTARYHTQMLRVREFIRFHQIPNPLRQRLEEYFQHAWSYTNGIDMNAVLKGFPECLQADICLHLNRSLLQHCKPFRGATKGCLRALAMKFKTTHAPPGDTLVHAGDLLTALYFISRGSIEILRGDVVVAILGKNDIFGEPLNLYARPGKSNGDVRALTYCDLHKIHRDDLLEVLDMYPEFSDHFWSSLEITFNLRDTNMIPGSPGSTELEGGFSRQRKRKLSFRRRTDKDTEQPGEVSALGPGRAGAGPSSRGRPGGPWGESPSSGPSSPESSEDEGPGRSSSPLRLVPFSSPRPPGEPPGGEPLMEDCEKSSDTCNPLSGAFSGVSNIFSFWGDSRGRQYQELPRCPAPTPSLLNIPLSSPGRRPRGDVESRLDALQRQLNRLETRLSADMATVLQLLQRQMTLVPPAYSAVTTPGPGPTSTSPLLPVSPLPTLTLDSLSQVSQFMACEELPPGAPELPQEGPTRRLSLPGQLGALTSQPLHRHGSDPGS

The target of a further series is human DAT (Homo sapiens (Human), UniProt Q01959). As to the kind of experiment: Binding to dopamine transporter (DAT) in vitro, [3H]-WIN35,428 SPA. The conditions noted are these: for Ki: [3H]-WIN35,428 radioligand; for DAT selectivity ratio versus hTAAR1 EC50: DAT Ki / hTAAR1 EC50. As for the experimental part:
Binding to dopamine transporter (DAT) in vitro. Human embryonic kidney (HEK) 293 cells (Invitrogen, Zug, Switzerland) stably transfected with human DAT were cultured. The cells were collected and washed three times with phosphate-buffered saline (PBS). The pellets were frozen at −80° C. The pellets were then resuspended in 400 ml of 20 mM HEPES-NaOH, pH 7.4, that contained 10 mM EDTA at 4° C. After homogenization with a Polytron (Kinematica, Lucerne,
Switzerland) at 10000 rotations per minute (rpm) for 15 s, the homogenates were centrifuged at 48000×g for 30 min at 4° C. Aliquots of the membrane stocks were frozen at −80° C. All assays were performed at least three times. The test compounds were diluted in […] of binding buffer (252 mM NaCl, 5.4 mM KCl, 20 mM Na2HPO4, 3.52 mM KH2PO4, pH 7.4) and 10 point dilution curves were made and transferred to 96-well white polystyrene assay plates (Sigma-Aldrich, Buchs, Switzerland). […] Twenty microliters of binding buffer alone in the assay plate defined the total binding, whereas binding in the presence of 10 μM indatraline defined nonspecific binding. Frozen DAT membrane stocks were thawed and resuspended to a concentration of approximately 0.04 mg protein/ml binding buffer (1:1 diluted in H2O) using a polytron tissue homogenizer. The membrane homogenates (40 μg/ml) were then lightly mixed for 5-30 min with polyvinyl toluene […] wheat germ agglutinin-coated scintillation proximity assay (WGASPA; Amersham Biosciences) beads at 7.7 mg beads/ml homogenate. One hundred thirty microliters of the membrane/bead mixture were added to each well of the assay plate that contained radioligand and test compounds (final volume in each well, 200 μl) to start the assay, which was incubated for approximately 2 h at room temperature with agitation. The assay plates were then counted in the PVT SPA counting mode of a Packard Topcount. […] Non-linear regression was used to fit the data to sigmoid curves and determine IC50 values for binding and uptake. Ki values for binding and uptake were calculated using the following Cheng-Prusoff equation: Ki=IC50/(1+[S]/Km).

The mark [1] stands for this setting: estimated based on the IC50 value.
[2] abbreviates: human, CHO cells stably expressing hERG.
The mark [3] stands for this setting: human, CHO cells stably expressing hERG, pH 7.4, estimated based on the IC50 value.

Chain of human TAAR1 (Q96RJ0 whole entry): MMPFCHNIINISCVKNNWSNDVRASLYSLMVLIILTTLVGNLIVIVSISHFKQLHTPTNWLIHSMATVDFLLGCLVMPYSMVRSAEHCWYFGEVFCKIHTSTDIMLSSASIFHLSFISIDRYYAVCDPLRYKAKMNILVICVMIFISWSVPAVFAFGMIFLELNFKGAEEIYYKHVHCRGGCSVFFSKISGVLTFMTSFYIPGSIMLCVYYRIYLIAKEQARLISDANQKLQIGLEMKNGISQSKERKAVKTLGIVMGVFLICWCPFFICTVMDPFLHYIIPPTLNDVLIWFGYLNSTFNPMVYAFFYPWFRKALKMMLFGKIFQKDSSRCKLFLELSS
Chain of human DAT (Q01959 whole entry): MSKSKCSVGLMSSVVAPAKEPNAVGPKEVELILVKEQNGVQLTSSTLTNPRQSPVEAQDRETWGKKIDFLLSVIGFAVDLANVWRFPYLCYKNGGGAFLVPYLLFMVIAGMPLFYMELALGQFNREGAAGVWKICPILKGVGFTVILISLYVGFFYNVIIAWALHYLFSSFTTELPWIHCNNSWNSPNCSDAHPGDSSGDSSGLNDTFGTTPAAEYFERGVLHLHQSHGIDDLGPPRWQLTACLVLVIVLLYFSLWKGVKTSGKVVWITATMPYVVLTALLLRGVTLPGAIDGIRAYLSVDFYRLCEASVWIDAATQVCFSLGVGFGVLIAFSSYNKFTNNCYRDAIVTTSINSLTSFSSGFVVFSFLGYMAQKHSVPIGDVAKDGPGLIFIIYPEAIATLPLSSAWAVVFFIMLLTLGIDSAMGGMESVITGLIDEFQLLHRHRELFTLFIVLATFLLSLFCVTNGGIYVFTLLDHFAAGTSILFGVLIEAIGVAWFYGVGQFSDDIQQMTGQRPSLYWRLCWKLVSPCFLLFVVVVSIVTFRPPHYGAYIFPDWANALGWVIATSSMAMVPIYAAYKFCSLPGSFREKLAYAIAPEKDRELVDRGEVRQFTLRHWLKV

In the case of `CCc1[nH]nc(C(=O)Nc2ccc([C@H]3CNCCO3)cc2)c1C` [Example 1, 5-Ethyl-4-methyl-N-[4-[(2S)-morpholin-2-yl]phenyl]-1H-pyrazole-3-carboxamide], on human TAAR1, the “hTAAR1 efficacy*” value is on record as 42%. For the same compound, the “functional activity at hTAAR1” value on human TAAR1 (in vitro) was “partial agonist”. On hERG potassium channel (setting [1]), the IC20 is 36.2 µM. In addition, inhibition on hERG potassium channel was half-maximal at 217 µM (IC50). Moreover, the inhibitory constant (Ki) at human DAT and at human DAT (listed as example 1) was 27.5 µM each time.

In the case of `CCc1[nH]nc(C(=O)Nc2ccc([C@@H]3CNCCO3)cc2)c1C` [Example 2, 5-Ethyl-4-methyl-N-[4-[(2R)-morpholin-2-yl]phenyl]-1H-pyrazole-3-carboxamide], the “hTAAR1 efficacy*” value at human TAAR1 was found to be 38%.

Consider `O=C(Nc1ccc([C@H]2CNCCO2)cc1)c1ccc(OCC(F)(F)F)nc1` [Example 3, N-[4-[(2S)-Morpholin-2-yl]phenyl]-6-(2,2,2-trifluoroethoxy)pyridine-3-carboxamide], for which, on human TAAR1, the “hTAAR1 efficacy*” value was 45% and the concentration for a half-maximal effect (EC50) came to 0.0377 µM. On hERG potassium channel, the “Ratio hERG IC20/hTAAR1 EC50” value amounted to 52 and 9.84 µM corresponded to half-maximal inhibition (IC50). Moreover, the concentration for an effect of 20% (IC20) on hERG potassium channel (setting [1]) was 1.97 µM. In addition, the selectivity ratio at hERG potassium channel (setting [2]) is 52. Further, at human DAT, the “Ratio DAT Ki/hTAAR1 EC50” value is recorded as 462 and the Ki turned out to be 17.4 µM.

Turning to `O=C(Nc1ccc([C@H]2CNCCO2)cc1)c1ccc(Cl)nc1` [Example 4, 6-Chloro-N-[4-[(2S)-morpholin-2-yl]phenyl]pyridine-3-carboxamide], at human TAAR1, the “hTAAR1 efficacy*” value is 49% and the EC50 was found to be 0.0619 µM. Also, at hERG potassium channel, the “Ratio hERG IC20/hTAAR1 EC50” value amounted to 201 and the concentration for half-maximal inhibition (IC50) stood at 49.7 µM. Also, the IC20 at hERG potassium channel (setting [3]) is 12.4 µM. For the same compound, on human DAT, the “Ratio DAT Ki/hTAAR1 EC50” value stood at 40, the “DAT selectivity ratio versus hTAAR1 EC50” value is 40 fold and the affinity corresponds to a Ki of 2.5 µM.

`O=C(Nc1ccc([C@H]2CNCCO2)cc1)c1ccnc(Cl)c1` [Example 5, 2-Chloro-N-[4-[(2S)-morpholin-2-yl]phenyl]pyridine-4-carboxamide]: at human TAAR1, the “hTAAR1 efficacy*” value came to 40% and the EC50 came to 0.0656 µM. At hERG potassium channel, the “Ratio hERG IC20/hTAAR1 EC50” value is 338 and the IC50 was 81.7 µM. At hERG potassium channel (setting [3]), the concentration for an effect of 20% (IC20) is 22.2 µM. Further, on human DAT, the “Ratio DAT Ki/hTAAR1 EC50” value turned out to be 23, the “DAT selectivity ratio versus hTAAR1 EC50” value came out at 23 fold and the affinity corresponds to a Ki of 1.52 µM. The Ki on human DAT (listed as example 5) came to 1.5 µM.

`O=C(Nc1ccc([C@H]2CNCCO2)cc1)c1cnc(-c2ccccc2)s1` [Example 6, N-[4-[(2S)-Morpholin-2-yl]phenyl]-2-phenyl-1,3-thiazole-5-carboxamide]: at human TAAR1, the “hTAAR1 efficacy*” value turned out to be 30% and the EC50 was 0.08 µM. The Ki at human DAT worked out at 5.93 µM. For the same compound, affinity at human DAT (listed as example 6) was put at a Ki of 5.9 µM.

In the case of `O=C(Nc1ccc([C@H]2CNCCO2)cc1)c1cc(Cl)nc(Cl)c1` [Example 7, 2,6-Dichloro-N-[4-[(2S)-morpholin-2-yl]phenyl]pyridine-4-carboxamide], on human TAAR1, the “hTAAR1 efficacy*” value is recorded as 57% and the concentration giving a half-maximal response (EC50) came out at 0.0849 µM. Also, on hERG potassium channel, the “Ratio hERG IC20/hTAAR1 EC50” value was determined as 43 and inhibition was half-maximal at 11.4 µM (IC50). Further, the IC20 on hERG potassium channel (setting [1]) is 3.67 µM. Besides, the concentration for an effect of 20% (IC20) at hERG potassium channel (setting [3]) was 3.57 µM. Moreover, at hERG potassium channel (setting [2]), the selectivity ratio was found to be 43. For the same compound, on human DAT, the “Ratio DAT Ki/hTAAR1 EC50” value was determined as 9, the “DAT selectivity ratio versus hTAAR1 EC50” value was determined as 9 fold and the Ki was 0.79 µM.

Consider `Cc1c(C(=O)Nc2ccc([C@H]3CNCCO3)cc2)n[nH]c1-c1ccccc1` [Example 8, 4-Methyl-N-[4-[(2S)-morpholin-2-yl]phenyl]-5-phenyl-1H-pyrazole-3-carboxamide], for which, at human TAAR1, the “hTAAR1 efficacy*” value amounted to 33% and the half-maximal effective concentration (EC50) came out at 0.109 µM. Also, on hERG potassium channel, the “Ratio hERG IC20/hTAAR1 EC50” value was found to be 28 and inhibition was half-maximal at 10.8 µM (IC50). Moreover, on hERG potassium channel (setting [1]), the 20% effect concentration (IC20) was 3.01 µM. The selectivity ratio on hERG potassium channel (setting [2]) was 28. For the same compound, on human DAT, the “Ratio DAT Ki/hTAAR1 EC50” value stood at 90 and the inhibition constant Ki was 9.77 µM.

With `O=C(Nc1ccc([C@H]2CNCCO2)cc1)c1cnc(Cl)c(Cl)c1` [Example 9, 5,6-Dichloro-N-[4-[(2S)-morpholin-2-yl]phenyl]pyridine-3-carboxamide], at human TAAR1, the “hTAAR1 efficacy*” value amounted to 32% and the EC50 is 0.144 µM. Also, the EC50 at human TAAR1 (listed as example 9) is 0.144 µM. Affinity at human DAT was put at a Ki of 0.48 µM.

Take `O=C(Nc1ccc([C@H]2CNCCO2)cc1)c1ccc(C(F)(F)F)nc1` [Example 11, N-[4-[(2S)-Morpholin-2-yl]phenyl]-6-(trifluoromethyl)pyridine-3-carboxamide]: at human TAAR1, the “hTAAR1 efficacy*” value is listed as 46% and the EC50 came to 0.203 µM. For the same compound, the EC50 at human TAAR1 (listed as example 11) came out at 0.203 µM. The compound also registered an inhibition constant Ki at human DAT of 2.33 µM.

The values above are taken from US10508107B2, “Morpholine derivative” (Hoffmann-La Roche Inc., priority 2016, dated 2019).
